Laboratory results published in patent US9845327B2, “Treatment of proteinopathies” (THE GENERAL HOSPITAL CORPORATION, priority 2011, dated 2017).

B1: GCase polypeptide: myc-tagged GCase polypeptide expression construct transfected into Hela cells (protein, UniProt P04062 40-536, looked up)
Lysosomal acid …: ARPCIPKSFGYSSVVCVCNATYCDSFDPPTFPALGTFSRYESTRSGRRMELSMGPIQANHTGTGLLLTLQPEQKFQKVKGFGGAMTDAAALNILALSPPAQNLLLKSYFSEEGIGYNIIRVPMASCDFSIRTYTYADTPDDFQLHNFSLPEEDTKLKIPLIHRALQLAQRPVSLLASPWTSPTWLKTNGAVNGKGSLKGQPGDIYHQTWARYFVKFLDAYAEHKLQFWAVTAENEPSAGLLSGYPFQCLGFTPEHQRDFIARDLGPTLANSTHHNVRLLMLDDQRLLLPHWAKVVLTDPEAAKYVHGIAVHWYLDFLAPAKATLGETHRLFPNTMLFASEACVGSKFWEQSVRLGSWDRGMQYSHSIITNLLYHVVGWTDWNLALNPEGGPNWVRNFVDSPIIVDITKDTFYKQPMFYHLGHFSKFIPEGSQRVGLVASQKNDLDAVALMHPDGSAVVVVLNRSSKDVPLTIKDPAVGFLETISPGYSIHTYLWRRQ
modifications: myc tag
notes: myc-tagged GCase polypeptide expression construct transfected into Hela cells

How the values were obtained:
primary cortical neurons [1] = assay: Proteolysis of long-lived proteins by radioactive pulse-chase in primary cortical neurons; format: cell-based, mouse; settings: added to GCase polypeptide KD
Experimental: In this Example, a test was conducted to determine whether GCase polypeptide KD affects a lysosomal degradation pathway. In this test, neurons were treated with the well-established lysosomal inhibitors ammonium chloride (NH4Cl) and leupeptin.
Proteolysis of long-lived proteins was determined by radioactive pulse-chase using ^3H-leucine. This procedure was performed as described previously (Kaushik et al. Methods Enzymol. 452: 297, 2009). Briefly, cortical cells were grown in 24 well clusters seeded at 33000 cells/well and infected at moi 3 with scrb or GCase polypeptide shRNA expressing lentiviral vectors. On dpi 4, ^3H-leucine (PerkinElmer, # NET460A001 MC, final 5 μCi/ml) was added in standard neurobasal medium containing B27 for 2 days to trace label proteins. […] Samples were centrifuged at 20,000×g for 20 min, 4° C., and the radioactivity was measured in 5 ml of scintillation cocktail using a Beckman LS 1701 liquid scintillation counter (Beckman Instruments). Precipitated protein pellets were extracted in 200 μl of Na deoxycholate, 0.1 M NaOH, and radioactivity was determined. Percent proteolysis was calculated as described in detail elsewhere (Kaushik et al. Methods Enzymol. 452: 297, 2009). […]

Hela cells = assay: Lysosomal proteolysis by radioactive pulse-chase in transfected Hela cells; format: cell-based
Experimental: (§1) Further in this Example, it was assessed whether GCase polypeptide overexpression had the ability to directly enhance lysosomal proteolysis in a non-neuronal cell line. Hela cells were transfected with a myc-tagged GCase polypeptide expression construct and lysosomal proteolysis was assessed by radioactive pulse-chase (FIG. 17A). […] This effect was also confirmed through a different assay, by measuring the effect of GCase polypeptide overexpression on the activity of the lysosomal protease cathepsin B. A cell-permeable fluorescent-tagged cathepsin B substrate (MAGIC RED cathepsin detection kit, Immunochemistry Technologies) was added to transfected Hela cells, and degradation of this substrate was determined in living cells after substrate wash-out.

primary cortical neurons [2] = assay: Neurotoxicity assessment (neurofilament immunostaining, neuronal volume) in primary cortical neurons expressing human WT α-synuclein; format: cell-based
α-synuclein [3] = assay: α-synuclein solubility and oligomers (sequential extraction/western blot, native SEC, immunostaining) in primary cortical neurons; format: cell-based
Experimental: (§2) As discussed above, the increased α-synuclein levels and toxicity that occur with GCase polypeptide depletion may result from generalized lysosomal inhibition or may be due to alterations in GlcCer lipid metabolism. To distinguish between these two possibilities, in this Example, the lysosomal protein degradation was inhibited with leupeptin in WT α-synuclein-expressing neurons and the neurotoxicity was assessed. […] Thus, despite similar effects on the total α-synuclein levels by leupeptin or GCase polypeptide KD, only GCase polypeptide KD increased the steady-state levels of soluble HMW α-synuclein. In this Example, sequential extraction followed by SDS-PAGE/Coomassie brilliant blue (CBB) staining was used to determine the effect of leupeptin treatment on the solubility of total cellular proteins.
(§3) Cells were harvested in Triton X-100 lysis buffer. The extracts were centrifuged at 100,000×g for 30 min. The pellets were extracted in 2% SDS buffer. Similar procedures were utilized for mouse and human brain tissues, using 20 volumes of Triton X-100 lysis buffer. Samples were loaded onto SDS-PAGE gels or subjected to native SEC followed by western blot analysis as described below (Mazzulli et al., J. Neurosci. 26:10068, 2006).
Infected cortical cells (8,000,000 cells/10 cm plate) were harvested in Triton X-100 lysis buffer and 100,000×g Triton X-100 soluble lysate was loaded onto a Superdex 200 HR 10/300 column (GE healthcare) as described previously (Mazzulli et al., J. Neurosci. 26:10068, 2006). Quantification of α-synuclein oligomers has been described in detail previously (Tsika et al., J. Neurosci. 30: 3409, 2010).
Cortical cells grown on poly-D-lysine coated coverslips in 12 well clusters were washed very briefly in warm PBS followed by rapid fixation in PBS-buffered 4% paraformaldehyde (w/v) for 15 min. Cells were incubated with PBS containing 0.3% (v/v) Triton X-100 overnight at 4° C., then blocked in 2% (w/v) bovine serum albumin (BSA) (Sigma-Aldrich, # A-7906) and 10% normal goat serum (Jackson Immunoresearch Laboratories, #005-000-121) in PBS-Triton X-100 for 1 hr. Primary antibodies were diluted into blocking buffer (see above for dilutions), incubated overnight at 4° C., and washed extensively in PBS-Triton X-100. […] Coverslips were mounted onto glass slides with 10 μl of 4,6-diamidino-2-phenylindole dihydrochloride (DAPI)-containing Fluoromount G (Southern Biotech, #0100-20) and visualized with a fluorescence microscope. For quantification of α-synuclein and LC3 immunostaining, pixels from equal-time exposed images were quantified using Adobe Photoshop software CS2 (Adobe Systems), and normalized to DAPI.

LC3-II = LC3-II western blot in primary cortical neurons; format: cell-based, mouse; settings: leupeptin compared with GCase polypeptide KD
Experimental: as §2
Most materials for SDS-PAGE were obtained from Invitrogen (NuPAGE system). […] Blots were blocked in Odyssey blocking buffer (Li-Cor biosciences) containing 0.05% Tween, or 5% non-fat dry milk in TBS-T 0.2%, followed by incubation with primary antibodies (see above for dilutions), and detected with anti-mouse or -rabbit IgG conjugated to IRDye 680 or 800 (1:10,000, Li-Cor biosciences). […] Any nonspecific bands detected were not included in densitometric analyses. […]

total cellular proteins = assay: Total cellular protein solubility by sequential extraction, SDS-PAGE and Coomassie brilliant blue staining; format: cell-based, mouse; settings: leupeptin treatment
Experimental: as §2, §3

[4] = tested on: α-synuclein/LAMP1 colocalized puncta; assay: Immunostaining of α-synuclein and LAMP1, condensed nuclei count in primary neurons; format: cell-based
Experimental: Next in this Example, the effect of GlcCer on α-synuclein fibril formation was assessed under acidic conditions (pH 5.0, 37° C.), to simulate a lysosome-like environment in vitro because the neuronal culture data had indicated increased colocalization of α-synuclein with LAMP1 upon GCase polypeptide KD (FIGS. 5H and 5I). […] An increased frequency of condensed nuclei in WT α-synuclein/GC-depleted cells, compared to WT α-synuclein/scrb shRNA cells (panel H), was consistent with a decline in neuronal viability. […] The α-synuclein detected in P2 was in the form of a T-sol 18 kDa monomer (panel I, left), as well as T-insoluble monomer and multimers (panel I, right).
Cortical cells grown on poly-D-lysine coated coverslips in 12 well clusters were washed very briefly in warm PBS followed by rapid fixation in PBS-buffered 4% paraformaldehyde (w/v) for 15 min. […] Coverslips were mounted onto glass slides with 10 μl of 4,6-diamidino-2-phenylindole dihydrochloride (DAPI)-containing Fluoromount G (Southern Biotech, #0100-20) and visualized with a fluorescence microscope. For quantification of α-synuclein and LC3 immunostaining, pixels from equal-time exposed images were quantified using Adobe Photoshop software CS2 (Adobe Systems), and normalized to DAPI.

cathepsin B = assay: Cathepsin B activity in living transfected Hela cells (fluorescent substrate); format: cell-based; settings: overexpression in transfected Hela cells, versus GFP
Experimental: as §1
In this Example, it was investigated whether enhancement of lysosomal enzyme trafficking through stimulation of the secretory pathway would result in increased lysosomal function and reduction of α-synuclein. Therefore, in this Example the small GTPase Rab1a polypeptide was overexpressed by lentiviral infection in iPS neurons to stimulate enzyme trafficking. […] The effect of Rab1a polypeptide was determined in human iPS dopamine neurons derived from reprogrammed fibroblasts of a PD patient (Coriell line ND27760). […] Further in this Example, it was determined if Rab1a polypeptide enhances lysosomal function by monitoring cathepsin B activity.

α-synuclein [5] = assay: α-synuclein levels by western blot in human midbrain iPS dopamine neurons; format: cell-based; settings: lentiviral overexpression, moi 5, human PD dopamine neurons (Coriell line ND27760, SNCA triplication)
Text: In this Example, it was investigated whether enhancement of lysosomal enzyme trafficking through stimulation of the secretory pathway would result in increased lysosomal function and reduction of α-synuclein. Therefore, in this Example the small GTPase Rab1a polypeptide was overexpressed by lentiviral infection in iPS neurons to stimulate enzyme trafficking. Rab1a polypeptide has been established to function specifically at the ER-Golgi step of the secretory pathway (Duvernay et al., Cell Signal 17: 1457, 2005). The effect of Rab1a polypeptide was determined in human iPS dopamine neurons derived from reprogrammed fibroblasts of a PD patient (Coriell line ND27760). These cells harbor a triplication mutation in the genomic region containing SNCA which encodes for α-synuclein, leading to overexpression of the protein and lysosomal trafficking deficits. […] Further in this Example, it was determined if Rab1a polypeptide enhances lysosomal function by monitoring cathepsin B activity.
It was also shown in this Example that treatment with the GCase polypeptide activator increased the levels of total GCase protein and increased the post-ER forms, indicating enhancement of flux to the lysosome (FIG. 19B).
Most materials for SDS-PAGE were obtained from Invitrogen (NuPAGE system). Protein lysates were boiled in sample buffer (20 mM Tris, 1% (v/v) glycerol, 180 mM β-mercaptoethanol, 0.003% (w/v) bromophenol blue, 2% (w/v) SDS, pH 6.8), resolved on 4%-12% Bis-Tris polyacrylamide precast gels in a MOPS-SDS running buffer, or 4%-12% Tris-Glycine gels. 10% Tris-Glycine gels were utilized for some GCase polypeptide western blot's (FIGS. 13B, 13D, and 13E, and FIGS. 14C and 14F). […] Blots were blocked in Odyssey blocking buffer (Li-Cor biosciences) containing 0.05% Tween, or 5% non-fat dry milk in TBS-T 0.2%, followed by incubation with primary antibodies (see above for dilutions), and detected with anti-mouse or -rabbit IgG conjugated to IRDye 680 or 800 (1:10,000, Li-Cor biosciences). […] Any nonspecific bands detected were not included in densitometric analyses. […]

[6] = leupeptin-treated WT α-synuclein-expressing neurons

Molecule	proteolysis of long-lived proteins in GCase polypeptide shRNA-treated cells (primary cortical neurons [1])	effect of lysosomal inhibitors on the proteolysis increase by GCase polypeptide overexpression (Hela cells)	neurotoxicity at later time points (primary cortical neurons [2]; >12 dpi)	α-synuclein-mediated neurotoxicity (primary cortical neurons [2]; WT α-synuclein-expressing neurons, 50 μM leupeptin, 7 dpi)	T-insoluble α-synuclein (α-synuclein [3]; [6])	amount of soluble α-synuclein (α-synuclein [3]; [6])	total α-synuclein immunostaining intensity (α-synuclein [3]; leupeptin-treated compared to control cells)	soluble HMW α-synuclein by SEC (α-synuclein [3]; leupeptin-treated neurons)	levels of LC3-II (LC3-II)	levels of total insoluble proteins, fold increase (total cellular proteins) [fold]	percentage of cells with condensed nuclei compared to untreated control cells ([4]; 7 dpi)	percentage of cells containing α-synuclein/LAMP1 colocalized puncta ([4]; leupeptin-treated cells) [%]	cathepsin B activity (cathepsin B)	α-synuclein levels (α-synuclein [5])	increase in proteolysis compared to GFP control transfected cells (Hela cells; myc-tagged GCase polypeptide expression construct) [%]
CC(=O)N[C@@H](CC(C)C)C(=O)N[C@@H](CC(C)C)C(=O)N[C@H](C=O)CCCNC(=N)N [leupeptin]	did not additively inhibit	completely reversed	did result in neurotoxicity	did not enhance	increase	no change	increase	not detectable	comparable increase	~2	did not alter	~90			
Rab1a polypeptide: small GTPase overexpressed by lentiviral infection or transfection; SEQ ID NO. 13													increase	dramatic reduction	
B1													increased		40
